Values joined by “and” are separate entries in the source; they are usually repeats but may differ in a detail not shown here. Identical values can stand only once.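 1) Cells in 96-well plates. 2) Compound, 48 h, 5 concentrations. 3) Linear interpolation between surrounding doses. 4) Unreached endpoint = highest concentration. GI50 marks 50% less growth. TGI: total growth inhibition.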

Common to all, as to assay: growth of human tumour cells (NCI), 48 h
The test system of assay [1] is DU-145 prostate.
The subject of assay [2] is 786-0 renal.
Assay [3] has as its system SNB-19 CNS.
Assay [4] relates to IGROV1 ovarian.
For assay [5], the system named is BT-549 breast.
The subject of assay [6] is U251 CNS.
Assay [7] deals with NCI-H23 lung.
Assay [8] concerns NCI-H460 lung.
In assay [9] the test system is SK-MEL-2 melanoma.
The test system of assay [10] is A498 renal.
Assay [11] relates to HCT-116 colon.
The test system of assay [12] is MOLT-4 leukemia.
In assay [13] the test system is EKVX NSCLC.

As for `O=c1[nH]c(Nc2nc3ccccc3[nH]2)nc2c1CCC2`, the TGI in [1], in assay [2], in [3], in [4], in assay [5] and in [6] was more than 100 µM each time. Besides, the TGI in [7], in [8], in [9], in [10] and in assay [11] was more than 100 µM in each case.

In the case of `Cc1[nH]n(C2=NCCN2)c(=O)c1Cc1ccccc1`, the TGI in assay [2], in assay [3], in assay [4], in assay [12], in assay [5] and in [6] was more than 100 µM in each case. The TGI in assay [7], in assay [8], in assay [13], in assay [9], in assay [10] and in assay [11] was more than 100 µM each time.

`Cc1nn(C(=O)Cc2ccccc2)c2c1C(c1ccc(N(C)C)cc1)SC(N)=N2` (stereo not given): the TGI in assay [1], in assay [2], in [3], in assay [4], in assay [12] and in assay [5] was more than 100 µM each time. The TGI in assay [7], in assay [8], in assay [13], in [10] and in [11] was more than 100 µM each time.

Take `NC(CCC(=O)O)C(=O)N1CCN(c2nc(N3CCCC3)c3nc(Cl)c(NCc4ccccc4)nc3n2)CC1` (stereo not given): the TGI in assay [1] is 21.9 µM; in assay [2], 25.9 µM; in assay [3] it was 34.4 µM; in assay [4], 40 µM; in [12], 24.7 µM; in [5], 25.4 µM. For the same compound, the TGI is 30.2 µM in [6]; 32.3 µM in assay [7]; 24.9 µM in [8]; 27.7 µM in [13]; 31.5 µM in [9]; 28.4 µM in [11].

For the compound `C=C(CC[C@@H](C)[C@H]1CC[C@@]2(C)C3=C(CC[C@]12C)[C@@]1(C)CC[C@H](O)[C@@H](C)C1CC3)C(C)C` (stereo not given in full), the TGI was determined as 2.07 µM in assay [2]; 4.45 µM in assay [3]; 8.32 µM in assay [4]; 2.49 µM in assay [12]; 3.13 µM in [5]; 3.11 µM in assay [6]. Further, the TGI in [7] came to 2.51 µM; in assay [8], 2.09 µM; in assay [13], 2.42 µM; in assay [9] it was 2.93 µM; in [10], 2.58 µM; in assay [11] it was 2.48 µM.

In the case of `COC(=O)C(NC(=O)c1ccccc1)c1ccco1` (stereo not given), the TGI in [1], in assay [2], in [3], in assay [4], in [12] and in assay [5] was more than 100 µM each time. In addition, the TGI in assay [6], in assay [7], in [8], in [13], in [10] and in [11] was more than 100 µM each time.

On to `c1ccc(CSP234N5CCN2CCN3CCN4CC5)c(CSP234N5CCN2CCN3CCN4CC5)c1`, for which the TGI in assay [1], in [2], in assay [3], in assay [4], in [12] and in assay [5] was more than 100 µM throughout. For the same compound, the TGI in assay [6], in assay [7], in assay [8], in [13], in assay [9] and in assay [11] was more than 100 µM each time.

As for `Cc1cc(=O)n2nc(CN3CCCCC3)sc2n1`, the TGI in assay [1], in assay [2], in [3], in assay [4], in assay [12] and in assay [5] was more than 100 µM each time. The TGI in assay [6], in assay [7], in assay [8], in assay [13], in assay [9] and in assay [11] was more than 100 µM throughout.

Regarding `Cc1ccc(-c2c3nc(c(-c4ccc(C)cc4)c4ccc([nH]4)c(-c4ccc(OCC5COC(C)(C)O5)cc4)c4nc(c(-c5ccc(C)cc5)c5ccc2[nH]5)C=C4)C=C3)cc1` (stereo not given), the TGI was more than 31.6 µM in [1]; more than 31.6 µM in [2]; more than 31.6 µM in assay [3]; more than 31.6 µM in assay [4]; more than 31.6 µM in assay [12]; more than 100 µM in assay [5]. Also, the TGI in assay [6], in assay [7], in [8], in assay [13], in [9] and in assay [11] was more than 31.6 µM each time.

In the case of `N#Cc1c(-c2ccccc2)cc(Nc2cccc(C(F)(F)F)c2)n2c1nc1ccccc12`, the TGI was determined as 19.7 µM in assay [1]; 6.57 µM in [2]; 41 µM in [12]; 14.1 µM in assay [5]; 10.3 µM in assay [6]; 3.63 µM in [7]. Besides, the TGI in [8] is 17.7 µM; in assay [13] it was 10 µM; in assay [10], 12.6 µM; in assay [11], 3.52 µM.

Regarding `O=C1C(Cl)C(c2cccc(Cl)c2)N1c1ccc(-n2c(=S)[nH]c3ccccc3c2=O)cc1` (stereo not given), the TGI in assay [1] was more than 100 µM; in assay [2], 54.9 µM; in [3] it was 16.3 µM; in assay [4] it was 23.9 µM; in assay [12], 37.6 µM; in assay [5], more than 100 µM. For the same compound, the TGI in assay [6] is 27.9 µM; in assay [7] it was 49.7 µM; in assay [8], 35.3 µM; in assay [13], more than 100 µM; in assay [11] it was 85.3 µM.

`Cc1ccc(N=Nc2c(C)c(C#N)c(=S)n(C3OC(CO)C(O)C(O)C3O)c2C)cc1` (stereo not given): the TGI was more than 100 µM in assay [1]; 83.8 µM in [2]; more than 100 µM in assay [3]; more than 100 µM in assay [4]; 48.6 µM in assay [12]; 54.4 µM in [5]. Further, the TGI is 52.6 µM in [6]; more than 100 µM in [7]; 91.3 µM in assay [8]; 89.7 µM in assay [9]; 62.9 µM in assay [11].

Consider `O=C1CCCC2(c3ccccc3)Nc3ccccc3N12` (stereo not given), for which the TGI in [1], in assay [2], in [3], in [4], in [12] and in [5] was more than 100 µM throughout. The TGI in [6], in [7], in assay [8], in assay [13], in assay [9] and in assay [11] was more than 100 µM throughout.

In the case of `O=C(O)[C@@H]1CSCN1C(=O)[C@@H]1CCC(=S)N1`, the TGI in assay [1], in assay [2], in assay [3], in assay [4], in [12] and in [5] was more than 100 µM each time. Also, the TGI in assay [7], in [8], in assay [9] and in assay [10] was more than 100 µM in each case.

Turning to `O=C(O)Cc1cccc2c1OC(c1ccccc1)C(Cl)(C(=O)c1ccccc1)C2=O` (stereo not given), the TGI in [1] is 65.3 µM; in [2], 25.9 µM; in assay [3], more than 100 µM; in assay [4], 28.9 µM; in assay [12], 62.3 µM; in assay [5], more than 100 µM. Also, the TGI in assay [6] is 30.9 µM; in assay [7], 33.1 µM; in assay [8], 55.8 µM; in assay [13], 50 µM; in [11], 29.4 µM.

Take `CCNc1cc2c(cc1O)CC[C@@H]1[C@@H]2CC[C@]2(C)[C@@H](O)CC[C@@H]12`: the GI50 was 3.84 µM in assay [1] and 3.1 µM in assay [11]. Further, the TGI in assay [1] is 20.5 µM; in assay [2], 25.3 µM; in assay [3] it was more than 46.1 µM; in assay [4] it was 33.2 µM; in assay [12] it was 46.7 µM; in assay [5], 43.3 µM. For the same compound, the TGI amounted to 18.5 µM in assay [6]; 28.7 µM in assay [7]; 13.7 µM in [8]; 34.8 µM in assay [13]; 6.16 µM in [10]; 18.7 µM in assay [11].

Turning to `CCc1c(C)c(C#N)c(=S)n(C2OC(COC(C)=O)C(OC(C)=O)C(OC(C)=O)C2OC(C)=O)c1C` (stereo not given), the TGI is more than 100 µM in assay [1]; > 100 µM and 41.5 µM in [2]; > 100 µM and 93 µM in [3]; more than 100 µM in assay [4]; more than 100 µM in assay [12]; more than 100 µM in assay [6]. For the same compound, the TGI is more than 100 µM in [7]; more than 100 µM in [8]; more than 100 µM in assay [13]; 32.9 µM in assay [9]; > 100 µM and 92.4 µM in assay [10]; > 100 µM and 45.5 µM in assay [11]. The GI50 in [3] was > 100 µM and 21.5 µM; in [6], > 100 µM and 26.9 µM; in assay [10], > 100 µM and 30.2 µM; in assay [11] it was > 100 µM and 21.7 µM.

For the compound `O=C1O/C(=C(/Cl)c2cccc3ccccc23)c2ccccc21`, the TGI in [1], in assay [2], in [3], in assay [4], in assay [12] and in assay [5] was more than 100 µM each time. The TGI in [6], in [7], in [8], in assay [13], in assay [10] and in assay [11] was more than 100 µM throughout.

Regarding `O=C1NCCCNCCCNCCCNC(=O)c2cccc1n2`, the TGI in assay [2], in assay [3], in assay [4], in assay [12], in [5] and in [6] was more than 100 µM throughout. Further, the TGI in assay [7], in assay [8], in assay [13], in assay [9] and in assay [11] was more than 100 µM each time.

Turning to `CNC(=O)N1CN(c2ccccc2)C2(CCN(CCCC3(c4ccc(F)cc4)OCCO3)CC2)C1=O`, the TGI in assay [1], in assay [2], in assay [3], in [4], in assay [12] and in assay [6] was more than 100 µM each time. For the same compound, the TGI in assay [7], in assay [8], in [13], in assay [9], in assay [10] and in [11] was more than 100 µM in each case.

`CC(=NNC(=S)Nc1ccc(C)cc1)c1cccc(C(C)=NNC(=S)Nc2ccc(C)cc2)n1`: the TGI in [1] was more than 100 µM; in assay [2], more than 100 µM; in assay [3] it was more than 100 µM; in assay [4], 75.4 µM; in assay [12] it was 22.9 µM; in [6] it was 97 µM. Further, the TGI in [7] was more than 100 µM; in [8], more than 100 µM; in [13] it was more than 100 µM; in assay [9], more than 100 µM; in assay [10], 80.9 µM; in assay [11], 45.3 µM.

Consider `N#Cc1nc(C2=C(Cl)c3ccccc3OC2)[nH]c1C#N`, for which the TGI is more than 100 µM in assay [2]; more than 100 µM in assay [3]; more than 100 µM in assay [4]; 40.5 µM in [12]; 48 µM in assay [5]; 75.9 µM in assay [6]. The TGI in assay [7] was 69.1 µM; in assay [8] it was 75.4 µM; in [13], more than 100 µM; in [10], 66.1 µM.

For the compound `Cc1cc(C)n(C2OC(CO)C(O)C(O)C2O)c(=S)c1C#N` (stereo not given), the TGI in assay [1], in [2], in assay [3], in [4], in assay [12] and in [5] was more than 100 µM in each case. Moreover, the TGI in assay [6], in [7], in assay [8], in assay [9], in assay [10] and in assay [11] was more than 100 µM each time.
